This is an account of results in patent publication US20110245249A1, “Heterocyclically Substituted Anilinopyrimidines” (Bayer CropScience AG, priority 2008, published 2011).

Structures are written as SMILES.

The data set is described as follows: logP by HPLC on reversed-phase columns (EEC Directive 79/831 Annex V.A8). Particulars: for log p [a]: pH 2.3. Type of data set: physicochemical. On the procedure:
The logP values were measured in accordance with EEC Directive 79/831 Annex V.A8 by HPLC (High Performance Liquid Chromatography) on reversed-phase columns (C 18) using the methods below:
[a] The determination was carried out in the acidic range at pH 2.3 using the mobile phases 0.1% aqueous phosphoric acid and acetronitrile linear gradient from 10% acetonitrile to 95% acetronitrile. [b] The LC-MS determination in the acid range was carried out at pH 2.7 using the mobile phases 0.1% aqueous formic acid and acetonitrile (contains 0.1% formic acid) linear gradient from 10% acetonitrile to 95% acetonitrile. [c] The LC-MS determination in the neutral range was carried out at pH 7.8 using the mobile phases 0.001 molar aqueous ammonium bicarbonate solution and acetonitrile linear gradient from 10% acetonitrile to 95% acetonitrile.

As to `Clc1cnc(Nc2cccc(C3OCC(C4CC4)CO3)c2)nc1NC1CC1` (stereo not shown) [Example 93], the “log p [b]” value (pH 2.7) is 2.6. Further, the “log p [c]” value (pH 7.8) is 3.91.
On the same counts, the results for `Clc1cnc(Nc2cccc(C3OCCC(c4ccccc4)O3)c2)nc1NC1CC1` (stereo not shown) [Example 94] are 2.83 and 4.11.
The corresponding values for `CC(C)(C)OCC1COC(c2cccc(Nc3ncc(Cl)c(NC4CC4)n3)c2)O1` (stereo not shown) [Example 95] are 2.76 and 4.08.
The corresponding values for `CCCOCC1COC(c2cccc(Nc3ncc(Cl)c(NC4CC4)n3)c2)O1` (stereo not shown) [Example 96] are 2.51 and 3.79.
Turning to `CC1CCOC(c2cccc(Nc3ncc(Cl)c(NC4CC4)n3)c2)O1` (stereo not shown) [Example 97], where the note is “pH 2.7”, the “log p [b]” value is recorded as 2. Further, the “log p [c]” value (pH 7.8) is listed as 3.25.
For the molecule `CC1OC(c2cccc(Nc3ncc(Cl)c(NC4CC4)n3)c2)OC(C)C1C` (stereo not shown) [Example 98], the “log p [b]” value (pH 2.7) is listed as 2.77. In addition, under “pH 7.8”, the “log p [c]” value came out at 4.21.
On the same counts, the results for `Clc1cnc(Nc2cccc(C3OCC(Cl)CO3)c2)nc1NC1CC1` (stereo not shown) [Example 99] are 2.15 and 3.33.
As to `CC1(C)CCOC(c2cccc(Nc3ncc(Cl)c(NC4CC4)n3)c2)O1` (stereo not shown) [Example 100], the “log p [b]” value (pH 2.7) is listed as 2.22. The “log p [c]” value (pH 7.8) was determined as 3.57.
On the same counts, the results for `CC1COC(c2cccc(Nc3ncc(Cl)c(NC4CC4)n3)c2)OC1` (stereo not shown) [Example 101] are 2.1 and 3.35.
In the case of `CC1(C)CC(C)(C)OC(c2cccc(Nc3ncc(Cl)c(NC4CC4)n3)c2)O1` [Example 102], the “log p [b]” value (pH 2.7) was found to be 2.86. Also, the “log p [c]” value (pH 7.8) was determined as 4.32.
On the same counts, the results for `Clc1cnc(Nc2cccc(C3OCC4(CCC4)CO3)c2)nc1NC1CC1` [Example 103] are 2.6 and 3.62.
The corresponding values for `COCC1COC(c2cccc(Nc3ncc(Br)c(NC4CC4)n3)c2)O1` (stereo not shown) [Example 104] are 1.9 and 3.02.
The corresponding values for `COCC1COC(c2cccc(Nc3ncc(C(F)(F)F)c(NC4CCC4)n3)c2)O1` (stereo not shown) [Example 106] are 3.22 and 3.77.
`C=CCOCC1COC(c2cccc(Nc3ncc(Br)c(NC4CC4)n3)c2)O1` (stereo not shown) [Example 107]: the “log p [a]” value was found to be 2.01. Moreover, the “log p [b]” value (pH 2.7) was 2.43.
Consider `C=CCOCC1COC(c2cccc(Nc3ncc(C(F)(F)F)c(NC4CC4)n3)c2)O1` (stereo not shown) [Example 108], for which the “log p [b]” value (pH 2.7) is listed as 3.35. Besides, under “pH 7.8”, the “log p [c]” value is given as 3.79.
With `C=CCOCC1COC(c2cccc(Nc3ncc(C(F)(F)F)c(NC4CCC4)n3)c2)O1` (stereo not shown) [Example 109], the “log p [b]” value (pH 2.7) is reported as 3.84. Moreover, the “log p [c]” value (pH 7.8) was 4.35.
`Brc1cnc(Nc2cccc(C3OC4COCC4O3)c2)nc1NC1CC1` (stereo not shown) [Example 110]: the “log p [c]” value (pH 7.8) is 2.66[c].
Take `FC(F)(F)c1cnc(Nc2cccc(C3OC4COCC4O3)c2)nc1NC1CC1` (stereo not shown) [Example 111]: the “log p [a]” value was determined as 1.94. In addition, the “log p [c]” value (pH 7.8) is 2.87.
With `FC(F)(F)c1cnc(Nc2cccc(C3OC4COCC4O3)c2)nc1NC1CCC1` (stereo not shown) [Example 112], the “log p [b]” value (pH 2.7) is 2.79. The “log p [c]” value (pH 7.8) is reported as 3.37.
On the same counts, the results for `CCC1COC(c2cccc(Nc3ncc(C(F)(F)F)c(NC4CCC4)n3)c2)O1` (stereo not shown) [Example 113] are 4.06 and 4.56.
The corresponding values for `COCC1COC(c2cccc(Nc3ncc(Cl)c(NC4CCC4)n3)c2)O1` (stereo not shown) [Example 114] are 2.09 and 3.42.
Take `COCC1COC(c2cccc(Nc3ncc(Br)c(NC4CCC4)n3)c2)O1` (stereo not shown) [Example 115]: the “log p [b]” value (pH 2.7) was 2.19. Under “pH 7.8”, the “log p [c]” value came out at 3.61.
Take `C=CCOCC1COC(c2cccc(Nc3ncc(Cl)c(NC4CCC4)n3)c2)O1` (stereo not shown) [Example 116]: the “log p [b]” value (pH 2.7) turned out to be 2.59. Under “pH 7.8”, the “log p [c]” value was 4.07.
For the molecule `C=CCOCC1COC(c2cccc(Nc3ncc(Br)c(NC4CCC4)n3)c2)O1` (stereo not shown) [Example 117], the “log p [b]” value (pH 2.7) came to 2.77. Under “pH 7.8”, the “log p [c]” value was determined as 4.24.
On the same counts, the results for `Clc1cnc(Nc2cccc(C3OC4COCC4O3)c2)nc1NC1CCC1` (stereo not shown) [Example 118] are 1.77 and 3.04.
On the same counts, the results for `Brc1cnc(Nc2cccc(C3OC4COCC4O3)c2)nc1NC1CCC1` (stereo not shown) [Example 119] are 1.91 and 3.23.
For the molecule `CC(C)(C)C1CCOC(c2cccc(Nc3ncc(Br)c(NC4CC4)n3)c2)O1` (stereo not shown) [Example 120], the “log p [b]” value (pH 2.7) is recorded as 3.34. Also, the “log p [c]” value (pH 7.8) is 4.7.
In the case of `CC(C)(C)C1CCOC(c2cccc(Nc3ncc(Cl)c(NC4CC4)n3)c2)O1` (stereo not shown) [Example 121], the “log p [b]” value (pH 2.7) was 3.16[b].
Consider `CC(C)(C)C1CCOC(c2cccc(Nc3ncc(C(F)(F)F)c(NC4CC4)n3)c2)O1` (stereo not shown) [Example 122], for which the “log p [b]” value (pH 2.7) is reported as 4.44. Also, where the note is “pH 7.8”, the “log p [c]” value was determined as 4.82.
The corresponding values for `Clc1cnc(Nc2cccc(C3OCC4(CC4)CO3)c2)nc1NC1CC1` [Example 123] are 2.09 and 3.32.
`CC1CC(C(F)(F)F)OC(c2cccc(Nc3ncc(Cl)c(NC4CC4)n3)c2)O1` (stereo not shown) [Example 124]: the “log p [b]” value (pH 2.7) was 2.84[b].
Take `CCOC1COC(c2cccc(Nc3ncc(Cl)c(NC4CC4)n3)c2)OC1` (stereo not shown) [Example 125]: the “log p [b]” value (pH 2.7) was 2.07. Moreover, the “log p [c]” value (pH 7.8) was found to be 3.27.
`Clc1cnc(Nc2cccc(C3OCCCCO3)c2)nc1NC1CC1` [Example 126]: the “log p [b]” value (pH 2.7) worked out at 2.14. The “log p [c]” value (pH 7.8) worked out at 3.48.
Regarding `Clc1cnc(Nc2cccc(C3OCCCS3)c2)nc1NC1CC1` (stereo not shown) [Example 127], where the note is “pH 2.7”, the “log p [b]” value is 2.1. Moreover, under “pH 7.8”, the “log p [c]” value was 3.33.
On the same counts, the results for `Fc1ccc(Nc2ncc(Cl)c(NC3CC3)n2)cc1C1OCCO1` [Example 128] are 1.75 and 2.88.
On the same counts, the results for `CC1CC1Nc1nc(Nc2cccc(C3OCCO3)c2)ncc1C(F)(F)F` (stereo not shown) [Example 129] are 3.03 and 3.58.
On to `COCC1COC(c2cccc(Nc3ncc(C(F)(F)F)c(NC4CC4C)n3)c2)O1` (stereo not shown) [Example 130], for which the log p came to 3.18 (pH 2.7) and 3.7 (pH 7.8).
As for `CC1CC1Nc1nc(Nc2cccc(C3OCCO3)c2)ncc1Br` (stereo not shown) [Example 131], the log p (pH 7.8) is 3.33[c].
On to `COCC1COC(c2cccc(Nc3ncc(Br)c(NC4CC4C)n3)c2)O1` (stereo not shown) [Example 132], for which the log p is, setting by setting: (pH 2.7) 2.19; (pH 7.8) 3.52.
On the same counts, the results for `CC1CC1Nc1nc(Nc2cccc(C3OCCCO3)c2)ncc1Br` (stereo not shown) [Example 133] are 2.18 and 3.53.
Take `C#CCNc1nc(Nc2cccc(C3OCCO3)c2)ncc1Cl` [Example 134]: the log p reads like this: (pH 2.7) 1.58; (pH 7.8) 2.37.
As to `Clc1cnc(Nc2ccc(C3OCCCO3)cc2)nc1NC1CC1` [Example 135], the log p is, setting by setting: (pH 2.7) 1.72; (pH 7.8) 2.82.
Turning to `COc1ccc(Nc2ncc(C(F)(F)F)c(NC3CC3)n2)cc1C1OCCCO1` [Example 136], the log p (pH 2.7) is reported as 2.38 and the log p (pH 7.8) stood at 3.18.
